The record followed here is patent publication US20250375428A1, “CBL-B INHIBITORS AND ANTI-PD1/ANTI-PD-L1 FOR USE IN THE TREATMENT OF CANCER” (HOTSPOT THERAPEUTICS, INC., priority 2022, published 2025).

Molecules are shown by their SMILES.

For one data set, the system named is CT26 tumor cells. The data set is described as follows: Subcutaneous syngeneic colorectal cancer model CT26 in female BALB/c mice. Format: in vivo, mouse. Particulars: Compound 29 30 mg/kg p.o. (QD or BID) in combination with anti-PD1 10 mg/kg i.p. BIW; FIG. 3. On the procedure:
The objective of this pharmacology study was to evaluate the anti-tumor growth efficacy of Compound 29 with in combination with anti-PD1 antibody (BP0146) or Isotype IgG2a (BP0089) in the treatment of the subcutaneous CT26 murine colorectal cancer model in female BALB/c mice.
Test particles were delivered via PO when the average tumor volume reached approximately 80 mm^3. Test articles was assessed at dose levels as described in Table 6. Tumor volumes and body weight were measured after the initiation of treatment.
The CT26 tumor cells were maintained in vitro with RPMI-1640 medium supplemented with 10% fetal bovine serum at 37° C. in an atmosphere of 5% CO^2 in air. The cells in exponential growth phase was harvested and quantitated by cell counter before tumor inoculation.
Each mouse was inoculated subcutaneously in the right lower flank region with CT26 tumor cells (5×10^5) in 0.1 ml of PBS for tumor development. […]
Tumor volumes were measured thrice per week after randomization in two dimensions using a caliper, and the volume was expressed in mm^3 using the formula: V=(L×W×W)/2, where V is tumor volume, L is tumor length (the longest tumor dimension) and W is tumor width (the longest tumor dimension perpendicular to L). […]
Tumor growth inhibition (TGI): TGI % is an indication of antitumor activity, and expressed as: TGI (%)=100×(1−T/C). […]

In a further data set the test system is H22 tumor cells. The data set is described as follows: Subcutaneous H22 murine liver cancer model in female BALB/c mice. The format is in vivo. On the set-up: Dunnett's multiple comparisons test Mean Diff.: unit: mm3. The note with it: for TGI (%): day 12; for Dunnett's multiple comparisons test Mean Diff.: tumor volume. As for the experimental part: The objective of this pharmacology study was to evaluate the anti-tumor growth efficacy of Compound 85 with in combination with anti-PD1 antibody (BP0146) in the treatment of the subcutaneous H22 murine liver cancer model in female BALB/c mice. Compound 85 test particles were delivered via PO when the average tumor volume reached approximately 80 mm^3. Compound 85 was assessed at 4 different dose levels (2 mpk, 6 mpk, 10 mpk, and 20 mpk for QD) in combination with anti-PD1 antibody (10 mpk, BIW). Tumor volumes and body weight were measured three times per week after the initiation of treatment.
The H22 tumor cells were maintained in vitro with RPMI-1640 medium supplemented with 10% fetal bovine serum at 37° C. in an atmosphere of 5% CO2. Cells in the exponential growth phase were harvested and quantified by cell counter before tumor inoculation.
Each mouse was inoculated subcutaneously in the right front flank region with H22 tumor cells (1×10e6) in 0.1 ml of PBS for tumor development.
After tumor inoculation, the animals were checked daily for morbidity and mortality. During routine monitoring, the animals were checked for any effects of tumor growth and treatments on behavior such as mobility, food and water consumption, body weight gain/loss (Body weights were measured thrice per week after randomization), eye/hair matting and any other abnormalities. Mortality and observed clinical signs were recorded for individual animals in detail.
Tumor volumes were measured three times per week after randomization in two dimensions using a caliper, and the volume was expressed in mm3 using the formula: V=(L×W×W)/2, where V is tumor volume, L is tumor length (the longest tumor dimension) and W is tumor width (the longest tumor dimension perpendicular to L). Dosing, as well as tumor and body weight measurements, were conducted in a Laminar Flow Cabinet.
Tumor growth inhibition (TGI): TGI % is an indication of antitumor activity, expressed as: TGI (%)=100×(1−T/C). T and C are the mean tumor volume (or weight) of the treated and control groups on a given day.
The treatment was performed for 21 days and the study was terminated on day 20 post dosing initiation.

Turning to `C[C@H]1CCCN(Cc2cc(C(F)(F)F)c3cn(-c4cccc(C5(Cc6nncn6C)COC5)c4)c(=O)n3c2)C1` [Compound 29], in the data set on CT26 tumor cells, the “tumor growth inhibition of CT26 tumors” value is listed as “further enhanced”.

`C[C@H]1CCCN(Cc2cc(C(F)(F)F)c3cn(-c4cccc([C@H](c5nncn5C)C5CCC5)c4)c(=O)n3c2)C1` [Compound 85]: the “TGI (%)” value in the data set on H22 tumor cells (Compound 85 2 mpk QD p.o. + anti-PD1 10 mpk BIW vs. Vehicle + isotype) amounted to 74.8%; in the data set on H22 tumor cells (Compound 85 6 mpk QD p.o. + anti-PD1 10 mpk BIW vs. Vehicle + isotype) it was 82.87%; in the data set with H22 tumor cells (Compound 85 10 mpk QD p.o. + anti-PD1 10 mpk BIW vs. Vehicle + isotype) it was 85.2%; with H22 tumor cells (Compound 85 20 mpk QD p.o. + anti-PD1 10 mpk BIW vs. Vehicle + isotype), 87.73%. In the data set with H22 tumor cells (Compound 85 10 mpk QD and 20 mpk QD + anti-PD1 combination), the “tumor inhibition compared with anti-PD1 alone” value was “statistically significant increase”. The complete regression entry in the data set with H22 tumor cells (Compound 85 20 mpk QD and anti-PD1 combination group, day 20) is reported as “One complete regression”. The “benefit in combination with anti-PD1” value in the data set with H22 tumor cells (Compound 85 + anti-PD1) is listed as “additive or synergistic benefit”. In addition, the “anti-tumor efficacy compared to single agent treatment” value in the data set on H22 tumor cells (Compound 85 at 2, 6, 10 and 20 mpk in combination with Anti-PD-1) was “increased anti-tumor efficacy”. Besides, in the data set on H22 tumor cells (Compound 85 up to 20 mpk QD in combination with anti-PD1), the tolerability result is “No tolerability issue”. Moreover, the “Dunnett's multiple comparisons test Mean Diff.” value with H22 tumor cells (Vehicle + isotype vs. Compound 85 2 mpk QD + anti-PD1) is 2158; with H22 tumor cells (Vehicle + isotype vs. Compound 85 6 mpk QD + anti-PD1), 2391; with H22 tumor cells (Vehicle + isotype vs. Compound 85 10 mpk QD + anti-PD1), 2458; with H22 tumor cells (Vehicle + isotype vs. Compound 85 20 mpk QD + anti-PD1) it was 2531. Besides, in the data set on H22 tumor cells (day 2 of treatment, Compound 85 20 mpk QD and anti-PD1 combination), the “loss of average body weight” value is “less than 5%”.
